Test results taken from a melting point compilation (Tetko et al.; mined from patent text by program, amines drawn as free bases though some values may be those of a salt).

Point of comparison: `COc1cc(CC(=O)N2CCN(c3nsc4ccccc34)CC2)c([N+](=O)[O-])cc1OC`, melting point 170 °C. Against it:
- CN(C)C(=O)CC1Cc2ccccc2NC1=O (stereo not drawn) — higher, 172 to 173 °C
- O=C(O)C1CCCC1c1ccc2c(c1)OC[C@H](Cc1ccccc1)[C@H]2O (relative stereo) — lower, 129 to 130 °C
- CCC(=O)c1nc(C)c(C)nc1C — lower, 65 to 67 °C
- Cc1ccc(Oc2ccc(OC(=O)N3CCC(C)CC3)cc2)cc1 — lower, 79 to 81 °C
- CCN(CC)CCOc1ccc(Nc2ncc3c(n2)N(Cc2ccccc2)C(=O)N(c2c(Cl)cccc2Cl)C3)cc1 — lower, 106 °C
- CCn1c(N)c(C(N)=O)c(=O)c2cnc(Nc3ccc(N4CCN(C(C)=O)CC4)cc3)nc21 — higher, 179 °C
- O=C(O)c1ccc(Nc2cc3c4c(c2)CCCC4CCC3)cc1 — higher, 204 to 205 °C
- CC1(C)CCOc2cc(C(=O)O)ccc21 — higher, 173 to 174 °C
- CC1(C)OC(=O)C(C(=O)Nc2ccc(C(F)(F)F)cc2)=C(O)O1 — higher, 206 to 208 °C
- COc1ccc(NC(=S)NCC(OC)OC)cc1 — higher, 215 to 217 °C
- CCCOc1ncc(I)cc1-c1nc2c(CC)n(Cc3ccccn3)nc2c(=O)[nH]1 — higher, 229 to 234 °C
- Cc1occc1S(=O)(=O)C(C)(Cc1ccccc1)C(=O)NO (stereo not drawn) — lower, 68 to 70 °C
- CC(=O)OC1CSC(Oc2ccccc2-c2c(C)noc2C)C(OC(C)=O)C1OC(C)=O (stereo not drawn) — lower, 136 to 138 °C
- CCN(CC)C(=O)Cc1cccc(Oc2ccccc2F)c1N — lower, 159 to 160 °C
- COc1ccc(C)c(NCc2ccccc2)c1 — lower, 81 to 82 °C
- O=C(N[C@@H](Cc1ccccc1)[C@H](O)CCl)OCc1ccccc1 — lower, 151 to 153 °C
- Cc1nc2ccccc2c(=O)n1CCCl — lower, 114 to 116 °C
- O=C(O)C1c2ccccc2OCc2ncccc21 (stereo not drawn) — lower, 139 to 140 °C
- CN1CCN(Cc2ccc(-c3cccc(-c4cncc(C#N)c4Nc4ccc5[nH]ccc5c4)c3)s2)CC1 — lower, 120 to 123 °C
- CCOC(=O)C1CCC2(c3cc(OC)c(OC)cc3CCN2C(=O)CCN(C)C)C(C2c3cc(OC)c(OC)cc3CCN2CC)C1 (stereo not drawn) — lower, 154 to 156 °C
- COc1ccc([C@@H]2O[C@H](CCC(=O)O)C(=O)N(Cc3ccccc3)c3ccccc32)cc1 (relative stereo) — lower, 107 to 109 °C
- COCCc1nc2c(N)nc3ccccc3c2n1CCCCNC(=O)c1nccc2ccccc12 — lower, 61 to 63 °C
- O=C(O)C1CCc2ccccc2N1C(=O)CCS (stereo not drawn) — lower, 130 to 132 °C
- COC(=O)[C@H]1CC[C@@H](NC(=O)c2cc(-c3ccc(C#N)cc3)nn(C)c2=O)CC1 — higher, 190 to 192 °C
- CC1(C)CCC(C)(C)c2cc(NC(=O)c3ccc(C=CC(=O)O)cc3)ccc21 — higher, 226 to 227 °C
- CN(C)C(=O)CN1CCC(c2ccc(Nc3nc4c(-c5ccc[nH]c5=O)cccn4n3)cc2)CC1 — higher, > 250 °C
- Cc1ccc(NC(=N)Nc2nc(-c3ccccc3)cs2)cc1 — lower, 152 to 153 °C
- O=C(O)COc1cccc(CCc2nc(-c3ccccc3)c(-c3ccccc3)o2)c1 — lower, 153 to 154 °C
- CC(C)(O)c1ccc(CNC(=O)c2cccnc2Oc2cccc3c2CCC3=O)cc1 — lower, 145 to 147 °C
- NC(=O)COC(=O)NCCC[C@H]1OC[C@H](c2ccc(Cl)c3ccccc32)CO1 — higher, 176 to 178 °C
- Fc1ccc(Cn2c(NC3CCN(CCOc4nc5ccccc5s4)CC3)nc3ccccc32)cc1 — lower, 147 °C
- C=C(C)C(=O)OCCCc1ccc2c(c1)N(C(C)(C)C)N(O)N2 — lower, 62 to 63.2 °C
- CCOC(=O)CCc1c(O)ccc2c(=O)c3cc(C(=O)OC)ccc3oc12 — higher, > 215 °C
- CCN(CC)CC(=O)Nc1ccc([N+](=O)[O-])cc1 — lower, 65 to 66 °C
- Cc1nn(C)c(NCC(C)(C)C)c1N — lower, 65 to 69 °C
- Cc1cccc(C)c1C1CCN(Cc2cc3ccccc3[nH]2)CC1 — lower, 128 to 130 °C
- CN1CCN(c2ccc(N/C=C3\C(=O)NC(=O)c4ccc(C(=O)O)cc43)cc2)CC1 — higher, 278 to 280 °C
